The test addresses T1, human chemokine receptor 2 isoform B (Homo sapiens, UniProt P41597).
T1 construct: host or cells: CHOK1-CCR2B-A5 cells (CHO-K1)
T1 sequence (P41597 1-360 isoform P41597-2): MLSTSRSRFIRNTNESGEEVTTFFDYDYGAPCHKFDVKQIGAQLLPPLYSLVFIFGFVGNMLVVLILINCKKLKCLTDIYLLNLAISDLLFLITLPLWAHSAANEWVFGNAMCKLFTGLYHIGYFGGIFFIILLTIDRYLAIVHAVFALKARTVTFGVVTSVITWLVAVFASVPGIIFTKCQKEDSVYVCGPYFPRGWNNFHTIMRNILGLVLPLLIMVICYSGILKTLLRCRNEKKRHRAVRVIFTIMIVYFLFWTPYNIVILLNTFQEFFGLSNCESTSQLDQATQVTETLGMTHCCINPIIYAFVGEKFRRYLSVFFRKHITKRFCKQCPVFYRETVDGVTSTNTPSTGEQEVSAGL
Put plainly: Calcium mobilization assay (FLIPR, antagonist activity against MCP-1). Conditions: Ca mobilisation assay, CHOK1-CCR2B-A5 cells, inhibition of calcium increase induced by 20 nM MCP-1. It counts as cell-based. The method, then: Calcium Mobilization Assay
CHOK1-CCR2B-A5 cells (from Euroscreen) stably overexpressing the human chemokine receptor 2 isoform B were cultured in Nutrient Hams F12 medium supplemented with 5% FBS, 100 U/ml penicillin, 100 μg/ml streptomycin, 400 μg/ml G418 and 5 μg/ml puromycin.
For the assay cells were grown overnight in 384-well black clear flat bottom polystyrene plates (Costar) at 37° C. at 5% CO2. After washing with DMEM, 20 mM Hepes, 2.5 mM probenecid, 0.1% BSA (DMEM assay buffer) cells were loaded with 4 μM Fluo-4 in the same DMEM assay buffer for 2 hours at 30° C. Excess dye was removed and cells were washed with DMEM assay buffer. 384-well compound plates were prepared with DMEM assay buffer/0.5% DMSO with or without various concentrations of test compounds. Usually compounds were tested for agonist and antagonist activity.
Test compounds were added to the assay plate and agonist activity was monitored as fluorescence for 80 seconds with a FLIPR (488 nm excitation; 510-570 nm emission; Molecular Devices). After 20-30 min. of incubation at 30° C., 20 nM MCP-1 (R&D; Roche) was added and fluorescence was monitored again for 80 seconds. Increases in intracellular calcium are reported as maximum fluorescence after agonist exposure minus basal fluorescence before exposure. Antagonist activity is indicated as inhibitor concentration required for 50% inhibition of specific calcium increases.

`C[C@H]1C(=O)N(CCC(F)C(=O)N2CCC3(CC3)[C@H](O)C2)CCN1C(=O)Nc1ccc(C(F)(F)F)c(Cl)c1` (single isomer, unassigned) [Example 137, (S)-4-[(R or S)-3-fluoro-4-((S)-4-hydroxy-6-aza-spiro[2.5]oct-6-yl)-4-oxo-butyl]-2-methyl-3-oxo-piperazine-1-carboxylic acid (3-chloro-4-trifluoromethyl-phenyl)-amide]: the concentration for half-maximal inhibition (IC50) came to 10.5 nM.
`C[C@H]1C(=O)N(CCC(F)C(=O)N2CCC3(CC3)[C@H](O)C2)CCN1C(=O)Nc1ccc(C(F)(F)F)c(Cl)c1` (single isomer, unassigned) [Example 138, (S)-4-[(S or R)-3-fluoro-4-((S)-4-hydroxy-6-aza-spiro[2.5]oct-6-yl)-4-oxo-butyl]-2-methyl-3-oxo-piperazine-1-carboxylic acid (3-chloro-4-trifluoromethyl-phenyl)-amide]: the half-inhibitory concentration (IC50) worked out at 1.4 nM.
The figure for `O=C(/C=C/c1ccc(Cl)c(Cl)c1)N1CCC(=O)N(CCC(=O)N2CCC(O)CC2)CC1` [Example 1, 1-[(E)-3-(3,4-Dichloro-phenyl)-acryloyl]-4-[3-(4-hydroxy-piperidin-1-yl)-3-oxo-propyl]-[1,4]diazepan-5-one] is 2660 nM; for `COC(=O)C(CC(=O)N1CCC2(CC2)[C@H](O)C1)N1CCN(C(=O)/C=C/c2ccc(Cl)c(Cl)c2)CCC1=O` (stereo partly drawn) [Example 7, (R,S)-2-{4-[(E)-3-(3,4-Dichloro-phenyl)-acryloyl]-7-oxo-[1,4]diazepan-1-yl}-4-((S)-4-hydroxy-6-aza-spiro[2.5]oct-6-yl)-4-oxo-butyric acid methyl ester] it is 453 nM.
The figure for `COC(=O)C(CC(=O)N1C[C@@H](C)C[C@H](O)C1)N1CCN(C(=O)/C=C/c2ccc(Cl)c(Cl)c2)CCC1=O` (stereo partly drawn) [Example 9, (R,S)-2-{4-[(E)-3-(3,4-Dichloro-phenyl)-acryloyl]-7-oxo-[1,4]diazepan-1-yl}-4-((3S,5S)-3-hydroxy-5-methyl-piperidin-1-yl)-4-oxo-butyric acid methyl ester] is 2350 nM.
Under `COC(=O)C(CC(=O)N1CCC2(CC2)[C@H](O)C1)N1CCN(C(=O)/C=C/c2cccc(Cl)c2)CCC1=O` (stereo partly drawn) [Example 10] stands 708 nM.
For the compound `O=C(/C=C/c1cccc(Cl)c1)N1CCC(=O)N(C(CO)CC(=O)N2CCC3(CC3)[C@H](O)C2)CC1` (stereo partly drawn) [Example 11, 1-[(E)-3-(3-Chloro-phenyl)-acryloyl]-4-[(R,S)-3-((S)-4-hydroxy-6-aza-spiro[2.5]oct-6-yl)-1-hydroxymethyl-3-oxo-propyl]-[1,4]diazepan-5-one], the IC50 stood at 464 nM.
Under `COCC(CC(=O)N1CCC2(CC2)[C@H](O)C1)N1CCN(C(=O)/C=C/c2cccc(Cl)c2)CCC1=O` (stereo partly drawn) [Example 13, 1-[(E)-3-(3-Chloro-phenyl)-acryloyl]-4-[(R,S)-3-((S)-4-hydroxy-6-aza-spiro[2.5]oct-6-yl)-1-methoxymethyl-3-oxo-propyl]-[1,4]diazepan-5-one] stands 771 nM; under `CN(C)C(=O)[C@@H](CCO)N1CCN(C(=O)/C=C/c2cccc(Cl)c2)CCC1=O` [Example 14, (R)-2-{4-[(E)-3-(3-Chloro-phenyl)-acryloyl]-7-oxo-[1,4]diazepan-1-yl}-4-hydroxy-N,N-dimethyl-butyramide], 907 nM.
Under `C[C@H]1C(=O)N(CCC(=O)N2CCC3(CC3)[C@H](O)C2)CCN1C(=O)Nc1ccc(Cl)c(Cl)c1` [Example 15, (S)-4-[3-((S)-4-Hydroxy-6-aza-spiro[2.5]oct-6-yl)-3-oxo-propyl]-2-methyl-3-oxo-piperazine-1-carboxylic acid (3,4-dichloro-phenyl)-amide] stands 237 nM.
Under `C[C@H]1C(=O)N(CCC(=O)N2CCCCC2)CCN1C(=O)Nc1ccc(Cl)c(Cl)c1` [Example 16, (S)-2-Methyl-3-oxo-4-(3-oxo-3-piperidin-1-yl-propyl)-piperazine-1-carboxylic acid (3,4-dichloro-phenyl)-amide] stands 4110 nM; under `C[C@H]1C(=O)N(CCC(=O)N2CCCC(O)C2)CCN1C(=O)Nc1ccc(Cl)c(Cl)c1` (stereo partly drawn) [Example 17, (S)-4-[3-((R,S)-3-Hydroxy-piperidin-1-yl)-3-oxo-propyl]-2-methyl-3-oxo-piperazine-1-carboxylic acid (3,4-dichloro-phenyl)-amide], 3170 nM; under `C[C@H]1C(=O)N(CCC(=O)N2CCC(C)(O)CC2)CCN1C(=O)Nc1ccc(Cl)c(Cl)c1` [Example 18, (S)-4-[3-(4-Hydroxy-4-methyl-piperidin-1-yl)-3-oxo-propyl]-2-methyl-3-oxo-piperazine-1-carboxylic acid (3,4-dichloro-phenyl)-amide], 1040 nM.
For `C[C@H]1C[C@H](O)CN(C(=O)CCN2CCN(C(=O)Nc3ccc(Cl)c(Cl)c3)[C@@H](C)C2=O)C1` [Example 19, (S)-4-[3-((3S,5S)-3-Hydroxy-5-methyl-piperidin-1-yl)-3-oxo-propyl]-2-methyl-3-oxo-piperazine-1-carboxylic acid (3,4-dichloro-phenyl)-amide], the 50% inhibitory concentration (IC50) was determined as 3830 nM.
The figure for `C[C@H]1CCN(C(=O)CCN2CCN(C(=O)Nc3ccc(Cl)c(Cl)c3)[C@@H](C)C2=O)C[C@H]1O` [Example 20, (S)-4-[3-((3S,4S)-3-Hydroxy-4-methyl-piperidin-1-yl)-3-oxo-propyl]-2-methyl-3-oxo-piperazine-1-carboxylic acid (3,4-dichloro-phenyl)-amide] is 1080 nM; for `C[C@H]1C(=O)N(CCC(=O)N2CCOCC2)CCN1C(=O)Nc1ccc(Cl)c(Cl)c1` [Example 22, (S)-2-Methyl-4-(3-morpholin-4-yl-3-oxo-propyl)-3-oxo-piperazine-1-carboxylic acid (3,4-dichloro-phenyl)-amide] it is 3070 nM; for `C[C@H]1C(=O)N(CCC(=O)N2CCC(C(F)(F)F)CC2)CCN1C(=O)Nc1ccc(Cl)c(Cl)c1` [Example 24, (S)-2-Methyl-3-oxo-4-[3-oxo-3-(4-trifluoromethyl-piperidin-1-yl)-propyl]-piperazine-1-carboxylic acid (3,4-dichloro-phenyl)-amide] it is 3170 nM.
Under `C[C@H]1C(=O)N(CCCC(=O)N2CCC3(CC3)[C@H](O)C2)CCN1C(=O)Nc1ccc(Cl)c(Cl)c1` [Example 25, (S)-4-[4-((S)-4-Hydroxy-6-aza-spiro[2.5]oct-6-yl)-4-oxo-butyl]-2-methyl-3-oxo-piperazine-1-carboxylic acid (3,4-dichloro-phenyl)-amide] stands 3.6 nM; under `C[C@H]1C(=O)N(CCCC(=O)N2CCC3(CC3)[C@H](O)C2)CCN1C(=O)Nc1cccc(Cl)c1` [Example 26, (S)-4-[4-((S)-4-Hydroxy-6-aza-spiro[2.5]oct-6-yl)-4-oxo-butyl]-2-methyl-3-oxo-piperazine-1-carboxylic acid (3-chloro-phenyl)-amide], 18.1 nM.
The figure for `C[C@H]1C(=O)N(CCCC(=O)N2CCC3(CC3)[C@H](O)C2)CCN1C(=O)Nc1ccc(Cl)cc1` [Example 27, (S)-4-[4-((S)-4-Hydroxy-6-aza-spiro[2.5]oct-6-yl)-4-oxo-butyl]-2-methyl-3-oxo-piperazine-1-carboxylic acid (4-chloro-phenyl)-amide] is 85 nM.
As for `C[C@H]1C(=O)N(CCCC(=O)N2CCC3(CC3)[C@H](O)C2)CCN1C(=O)Nc1cccc(C(F)(F)F)c1` [Example 28, (S)-4-[4-((S)-4-Hydroxy-6-aza-spiro[2.5]oct-6-yl)-4-oxo-butyl]-2-methyl-3-oxo-piperazine-1-carboxylic acid (3-trifluoromethyl-phenyl)-amide], the 50% inhibitory concentration (IC50) came out at 54.9 nM.
Under `C[C@H]1C(=O)N(CCCC(=O)N2CCC3(CC3)[C@H](O)C2)CCN1C(=O)Nc1ccc(C(F)(F)F)cc1` [Example 29, (S)-4-[4-((S)-4-Hydroxy-6-aza-spiro[2.5]oct-6-yl)-4-oxo-butyl]-2-methyl-3-oxo-piperazine-1-carboxylic acid (4-trifluoromethyl-phenyl)-amide] stands 20.6 nM; under `C[C@H]1C(=O)N(CCCC(=O)N2CCC3(CC3)[C@H](O)C2)CCN1C(=O)Nc1ccc(OC(F)(F)F)cc1` [Example 30, (S)-4-[4-((S)-4-Hydroxy-6-aza-spiro[2.5]oct-6-yl)-4-oxo-butyl]-2-methyl-3-oxo-piperazine-1-carboxylic acid (4-trifluoromethoxy-phenyl)-amide], 20.4 nM; under `C[C@H]1C(=O)N(CCCC(=O)N2CCC3(CC3)[C@H](O)C2)CCN1C(=O)Nc1cccc(OC(F)(F)F)c1` [Example 31, (S)-4-[4-((S)-4-Hydroxy-6-aza-spiro[2.5]oct-6-yl)-4-oxo-butyl]-2-methyl-3-oxo-piperazine-1-carboxylic acid (3-trifluoromethoxy-phenyl)-amide], 51 nM.

As usually defined, the IC50 is the concentration at which inhibition is half-maximal.

These data come from US8445674B2, “Heterocyclyl compounds” (Hoffmann-La Roche Inc, priority 2009, dated 2013).
